Results published in paper PMC6784069 (Toxins, 2019).
Where “and” joins values, the source holds several entries; their conditions need not be identical. Identical values can stand only once. Like-named read-outs stand apart in the source and are kept apart here. Residues, ends and D or L forms follow the SMILES beside them.

How the values were obtained:
[1] = target: T1, hKV11.1 (Homo sapiens, UniProt Q12809); test: in vitro; details: pH 7.4
[2] = target: hNaV1.8 (Homo sapiens, UniProt Q9Y5Y9); test: cell-based; type: cell-based
hNaV1.8, sequence (Q07699 19-218): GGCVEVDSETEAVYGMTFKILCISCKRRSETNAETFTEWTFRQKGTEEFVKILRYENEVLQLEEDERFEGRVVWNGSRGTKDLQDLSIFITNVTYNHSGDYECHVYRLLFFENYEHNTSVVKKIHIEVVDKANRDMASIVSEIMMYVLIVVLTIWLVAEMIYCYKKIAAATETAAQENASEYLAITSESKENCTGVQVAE
hNaV1.8, sequence (Q9Y5Y9 whole entry): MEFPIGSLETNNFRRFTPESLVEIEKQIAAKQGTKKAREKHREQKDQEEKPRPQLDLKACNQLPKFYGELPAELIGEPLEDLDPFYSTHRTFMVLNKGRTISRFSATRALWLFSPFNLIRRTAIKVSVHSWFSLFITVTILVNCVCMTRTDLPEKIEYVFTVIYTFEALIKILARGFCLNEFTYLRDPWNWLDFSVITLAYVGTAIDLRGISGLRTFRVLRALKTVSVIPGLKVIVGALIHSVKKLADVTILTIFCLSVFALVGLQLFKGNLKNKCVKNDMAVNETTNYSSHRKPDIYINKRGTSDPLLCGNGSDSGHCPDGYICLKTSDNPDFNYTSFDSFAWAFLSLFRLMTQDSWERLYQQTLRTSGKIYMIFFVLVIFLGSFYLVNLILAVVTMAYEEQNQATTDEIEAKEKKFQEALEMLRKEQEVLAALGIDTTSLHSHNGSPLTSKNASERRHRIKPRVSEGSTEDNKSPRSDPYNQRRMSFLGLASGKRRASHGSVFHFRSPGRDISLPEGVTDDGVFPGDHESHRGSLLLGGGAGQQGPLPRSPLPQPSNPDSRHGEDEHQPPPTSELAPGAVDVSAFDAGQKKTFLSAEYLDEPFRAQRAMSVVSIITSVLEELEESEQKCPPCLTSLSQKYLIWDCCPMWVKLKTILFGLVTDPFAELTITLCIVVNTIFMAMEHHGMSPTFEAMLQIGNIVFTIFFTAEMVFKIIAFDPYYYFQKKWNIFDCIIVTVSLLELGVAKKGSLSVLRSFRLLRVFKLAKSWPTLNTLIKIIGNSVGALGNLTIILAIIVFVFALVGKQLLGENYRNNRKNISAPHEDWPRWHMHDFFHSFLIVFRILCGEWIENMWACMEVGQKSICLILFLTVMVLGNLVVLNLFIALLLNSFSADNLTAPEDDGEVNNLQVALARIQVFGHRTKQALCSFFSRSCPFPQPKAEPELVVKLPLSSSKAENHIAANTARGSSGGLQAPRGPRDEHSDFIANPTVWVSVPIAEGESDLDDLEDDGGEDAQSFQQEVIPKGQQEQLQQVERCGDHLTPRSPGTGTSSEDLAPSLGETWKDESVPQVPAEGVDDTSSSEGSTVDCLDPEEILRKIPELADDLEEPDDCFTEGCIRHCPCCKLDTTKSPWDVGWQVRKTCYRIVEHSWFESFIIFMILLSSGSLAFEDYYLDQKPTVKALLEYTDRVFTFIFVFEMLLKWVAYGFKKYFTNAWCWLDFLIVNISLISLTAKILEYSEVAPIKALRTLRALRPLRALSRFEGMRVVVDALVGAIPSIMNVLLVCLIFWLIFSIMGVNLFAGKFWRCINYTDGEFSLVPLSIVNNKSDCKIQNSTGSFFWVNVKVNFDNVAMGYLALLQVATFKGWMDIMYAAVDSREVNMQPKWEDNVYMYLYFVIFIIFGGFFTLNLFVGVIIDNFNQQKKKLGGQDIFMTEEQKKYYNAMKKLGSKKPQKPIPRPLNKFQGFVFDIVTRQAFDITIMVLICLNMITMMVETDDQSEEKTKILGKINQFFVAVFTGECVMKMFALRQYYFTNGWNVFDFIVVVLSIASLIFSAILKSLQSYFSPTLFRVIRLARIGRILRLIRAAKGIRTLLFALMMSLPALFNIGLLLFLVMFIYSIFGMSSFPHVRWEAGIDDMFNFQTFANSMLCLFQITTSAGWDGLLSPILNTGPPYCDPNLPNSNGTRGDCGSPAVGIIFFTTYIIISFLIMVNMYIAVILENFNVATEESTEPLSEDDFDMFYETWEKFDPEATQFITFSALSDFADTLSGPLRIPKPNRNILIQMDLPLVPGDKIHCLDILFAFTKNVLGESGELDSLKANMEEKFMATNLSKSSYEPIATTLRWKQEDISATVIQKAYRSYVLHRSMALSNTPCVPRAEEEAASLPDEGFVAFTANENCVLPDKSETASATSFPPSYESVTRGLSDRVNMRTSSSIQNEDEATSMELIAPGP

[3] = target: T2, hNaV1.7 (Homo sapiens, UniProt Q15858); test: cell-based; type: cell-based; details: for IC50: SD
[4] = target: hNaV1.5 (Homo sapiens, UniProt Q14524); test: cell-based; details: IC50 on hNaV1.5 current; SD
[5] = target: hCaV1.2 (Homo sapiens, UniProt Q13936); test: cell-based; details: SD
[6] = target: hNaV1.2 (Homo sapiens, UniProt Q99250); test: cell-based; details: SD
hNaV1.2, sequence (Q99250 whole entry): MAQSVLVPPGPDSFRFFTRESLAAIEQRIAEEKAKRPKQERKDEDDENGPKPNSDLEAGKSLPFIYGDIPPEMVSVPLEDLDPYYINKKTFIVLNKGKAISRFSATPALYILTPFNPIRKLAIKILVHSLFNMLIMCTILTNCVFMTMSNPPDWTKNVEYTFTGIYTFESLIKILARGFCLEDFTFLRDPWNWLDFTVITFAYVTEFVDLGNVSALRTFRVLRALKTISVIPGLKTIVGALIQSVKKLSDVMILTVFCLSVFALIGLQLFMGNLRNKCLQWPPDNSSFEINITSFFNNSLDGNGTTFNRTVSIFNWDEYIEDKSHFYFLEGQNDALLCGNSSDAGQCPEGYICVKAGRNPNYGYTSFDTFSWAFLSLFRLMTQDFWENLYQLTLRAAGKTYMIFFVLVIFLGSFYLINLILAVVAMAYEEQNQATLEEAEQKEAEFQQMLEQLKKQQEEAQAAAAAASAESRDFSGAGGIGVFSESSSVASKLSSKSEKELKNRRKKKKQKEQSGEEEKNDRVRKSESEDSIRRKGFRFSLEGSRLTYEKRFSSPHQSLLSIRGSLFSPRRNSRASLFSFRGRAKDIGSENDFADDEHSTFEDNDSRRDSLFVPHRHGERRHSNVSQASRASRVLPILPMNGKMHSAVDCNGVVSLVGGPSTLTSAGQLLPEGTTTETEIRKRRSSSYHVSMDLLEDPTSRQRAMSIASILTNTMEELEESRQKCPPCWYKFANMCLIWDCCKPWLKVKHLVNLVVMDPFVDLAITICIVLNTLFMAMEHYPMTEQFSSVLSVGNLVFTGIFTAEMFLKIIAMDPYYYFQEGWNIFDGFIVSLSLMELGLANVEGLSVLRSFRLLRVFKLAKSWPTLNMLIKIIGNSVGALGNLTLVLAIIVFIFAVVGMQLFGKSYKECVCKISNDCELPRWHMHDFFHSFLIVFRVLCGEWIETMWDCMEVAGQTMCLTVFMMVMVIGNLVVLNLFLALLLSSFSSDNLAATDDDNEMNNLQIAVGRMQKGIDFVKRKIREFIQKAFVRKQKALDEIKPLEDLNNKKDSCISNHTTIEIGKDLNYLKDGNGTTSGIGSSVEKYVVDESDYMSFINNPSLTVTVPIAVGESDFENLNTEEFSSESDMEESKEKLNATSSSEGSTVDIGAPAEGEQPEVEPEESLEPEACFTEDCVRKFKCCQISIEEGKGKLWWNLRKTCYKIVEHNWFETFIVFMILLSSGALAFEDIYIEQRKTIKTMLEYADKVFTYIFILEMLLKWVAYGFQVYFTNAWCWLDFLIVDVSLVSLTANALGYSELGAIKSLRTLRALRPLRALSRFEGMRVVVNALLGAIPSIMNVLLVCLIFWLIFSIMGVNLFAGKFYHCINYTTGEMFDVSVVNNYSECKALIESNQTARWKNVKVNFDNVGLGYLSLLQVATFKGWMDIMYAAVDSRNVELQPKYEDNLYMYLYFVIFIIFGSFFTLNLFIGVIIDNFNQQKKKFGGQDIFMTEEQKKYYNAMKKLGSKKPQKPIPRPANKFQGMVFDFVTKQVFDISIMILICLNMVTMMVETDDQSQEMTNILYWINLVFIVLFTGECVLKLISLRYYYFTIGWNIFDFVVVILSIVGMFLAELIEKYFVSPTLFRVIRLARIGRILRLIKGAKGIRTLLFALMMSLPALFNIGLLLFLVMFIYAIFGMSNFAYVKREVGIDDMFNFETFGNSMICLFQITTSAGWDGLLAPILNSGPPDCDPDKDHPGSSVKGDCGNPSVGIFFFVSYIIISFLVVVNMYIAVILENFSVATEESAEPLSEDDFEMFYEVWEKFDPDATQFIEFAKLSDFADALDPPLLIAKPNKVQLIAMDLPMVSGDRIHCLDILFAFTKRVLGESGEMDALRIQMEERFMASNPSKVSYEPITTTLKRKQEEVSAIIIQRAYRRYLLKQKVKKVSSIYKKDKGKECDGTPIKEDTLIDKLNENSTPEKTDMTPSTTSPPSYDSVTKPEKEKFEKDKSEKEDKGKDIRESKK

[7] = system: hNaV1.2, 1.5 and 1.7–1.8, hCaV1.2 and hKV11.1 currents; details: for Hill number nH, all concentration–response curves: SD
[8] = target: T1, hKV11.1
[9] = system: NaV1.5; details: cited from earlier work
[10] = system: OD1-induced painful behavior of mice; details: mouse, in vivo
[11] = system: acute heat responses; details: in vivo, ip; cited from earlier work
[12] = system: paw formalin injection pain; details: mouse, in vivo; cited from earlier work
[13] = system: NaV1.8; details: cited from earlier work
[14] = target: hNaV1.3 (Homo sapiens, UniProt Q9NY46); test: cell-based; details: SD
[15] = system: NaV1.7; details: cited from earlier work
[16] = system: Drosophila Para/TipE; details: cited from earlier work
[17] = system: CFA-induced heat hyperalgesia; details: mouse, in vivo; cited from earlier work
[18] = system: NaV1.2; details: cited from earlier work
[19] = system: NaV1.1; details: cited from earlier work
[20] = target: hNaV1.6 (Homo sapiens, UniProt Q9UQD0); test: cell-based; details: SD
[21] = system: NaV1.3; details: cited from earlier work
[22] = target: hNaV1.1 (Homo sapiens, UniProt P35498); test: cell-based; details: SD
[23] = system: hNaV1.1–1.8; type: cell-based, human; details: read-out: IC90–95 (compound concentration necessary to inhibit 90–95% of current)
[24] = system: OD1-induced painful behavior of mice; details: mouse, in vivo; cited from earlier work
[25] = target: T2, hNaV1.7; details: cited from earlier work

CC[C@H](C)[C@H](NC(=O)[C@H](CC(=O)O)NC(=O)[C@@H](NC(=O)[C@@H]1CCCN1C(=O)[C@@H](N)CCCNC(=N)N)[C@@H](C)O)C(=O)N[C@@H](CCCCN)C(=O)N[C@H]1CSSC[C@@H]2NC(=O)[C@H](CCCNC(=N)N)NC(=O)CNC(=O)[C@H](CC(N)=O)NC(=O)[C@H]([C@@H](C)O)NC(=O)[C@H](CCCCN)NC(=O)CNC(=O)[C@H](Cc3ccccc3)NC(=O)[C@H](CCCNC(=N)N)NC(=O)[C@H](CO)NC(=O)[C@H](CCCCN)NC(=O)[C@@H]3CSSC[C@@H](C(=O)N[C@@H](Cc4ccccc4)C(=O)O)NC(=O)[C@H](CC(=O)O)NC(=O)[C@H](CSSC[C@H](NC(=O)[C@H](CCC(N)=O)NC(=O)[C@H](Cc4ccc(O)cc4)NC(=O)[C@H](CO)NC(=O)[C@H](CCC(=O)O)NC(=O)[C@H](CO)NC1=O)C(=O)N[C@@H](Cc1ccccc1)C(=O)N1CCC[C@H]1C(=O)N[C@@H](C(C)C)C(=O)N3)NC(=O)[C@H](Cc1ccccc1)NC(=O)CNC(=O)[C@H](CC(N)=O)NC(=O)[C@H](C(C)C)NC2=O [BeKm-1] (HELM PEPTIDE1{R.P.T.D.I.K.C.S.E.S.Y.Q.C.F.P.V.C.K.S.R.F.G.K.T.N.G.R.C.V.N.G.F.C.D.C.F}$PEPTIDE1,PEPTIDE1,7:R3-28:R3|PEPTIDE1,PEPTIDE1,13:R3-33:R3|PEPTIDE1,PEPTIDE1,17:R3-35:R3$$$V2.0)
IC90 [1]: 1000 nM

CC(C)C[C@@H]1NC(=O)[C@@H](NC(=O)[C@H](C)N)CSSC[C@@H]2NC(=O)[C@@H]3CSSC[C@@H](C(=O)N[C@@H](CCCNC(=N)N)C(=O)N[C@@H](Cc4ccc(O)cc4)C(=O)N[C@@H](CCCCN)C(=O)N[C@@H](CC(C)C)C(=O)N[C@@H](Cc4ccccc4)C(=O)O)NC(=O)[C@H](Cc4c[nH]c5ccccc45)NC(=O)[C@@H]4CCCN4C(=O)[C@H](Cc4ccc(O)cc4)NC(=O)[C@H](CCCCN)NC(=O)[C@H](Cc4c[nH]c5ccccc45)NC(=O)[C@H](CCC(=O)O)NC(=O)[C@H](CSSC[C@H](NC(=O)[C@H](CO)NC(=O)[C@H](C)NC(=O)[C@H](Cc4c[nH]c5ccccc45)NC(=O)[C@H](CCC(N)=O)NC(=O)CNC1=O)C(=O)N[C@@H](CC(=O)O)C(=O)N1CCC[C@H]1C(=O)N[C@@H](CCCCN)C(=O)N[C@@H](C)C(=O)N[C@@H](CO)C(=O)N[C@@H](CCCCN)C(=O)N3)NC(=O)[C@H](C)NC(=O)[C@H](Cc1ccc(O)cc1)NC(=O)[C@H](CC(N)=O)NC(=O)[C@@H]1CCCN1C2=O [D7A] (HELM PEPTIDE1{A.C.L.G.Q.W.A.S.C.D.P.K.A.S.K.C.C.P.N.Y.A.C.E.W.K.Y.P.W.C.R.Y.K.L.F}$PEPTIDE1,PEPTIDE1,2:R3-17:R3|PEPTIDE1,PEPTIDE1,9:R3-22:R3|PEPTIDE1,PEPTIDE1,16:R3-29:R3$$$V2.0)
IC50 ([2]; SD): 4000 ± 500 nM
IC50 ([3]; IC50 on hNaV1.7 current): 73 ± 23.7 nM
IC50 ([3]; hNaV1.7 IC50): 47 nM
IC50 [4]: 93.3 ± 32.9 nM
IC50 [5]: 800 ± 253 nM
IC50 [6]: 47.3 ± 5.2 nM
gain of affinity versus PhlTx1 [7]: 2.5-7.4 fold
Hill number nH, all concentration–response curves [7]: 1.06 ± 0.13
activity on the KV11.1 subtype [8]: inactive

CC(C)C[C@@H]1NC(=O)[C@@H](NC(=O)[C@H](C)N)CSSC[C@@H]2NC(=O)[C@@H]3CSSC[C@@H](C(=O)N[C@@H](CCCNC(=N)N)C(=O)N[C@@H](Cc4ccc(O)cc4)C(=O)N[C@@H](CCCCN)C(=O)N[C@@H](CC(C)C)C(=O)N[C@@H](Cc4ccccc4)C(=O)O)NC(=O)[C@H](Cc4c[nH]c5ccccc45)NC(=O)[C@@H]4CCCN4C(=O)[C@H](Cc4ccc(O)cc4)NC(=O)[C@H](CCCCN)NC(=O)[C@H](Cc4c[nH]c5ccccc45)NC(=O)[C@H](CCC(=O)O)NC(=O)[C@H](CSSC[C@H](NC(=O)[C@H](CO)NC(=O)[C@H](CC(=O)O)NC(=O)[C@H](Cc4c[nH]c5ccccc45)NC(=O)[C@H](CCC(N)=O)NC(=O)CNC1=O)C(=O)N[C@@H](CC(=O)O)C(=O)N1CCC[C@H]1C(=O)N[C@@H](CCCCN)C(=O)N[C@@H](C)C(=O)N[C@@H](CO)C(=O)N[C@@H](CCCCN)C(=O)N3)NC(=O)[C@H](C)NC(=O)[C@H](Cc1ccc(O)cc1)NC(=O)[C@H](CC(N)=O)NC(=O)[C@@H]1CCCN1C2=O [PhlTx1] (HELM PEPTIDE1{A.C.L.G.Q.W.D.S.C.D.P.K.A.S.K.C.C.P.N.Y.A.C.E.W.K.Y.P.W.C.R.Y.K.L.F}$PEPTIDE1,PEPTIDE1,2:R3-17:R3|PEPTIDE1,PEPTIDE1,9:R3-22:R3|PEPTIDE1,PEPTIDE1,16:R3-29:R3$$$V2.0)
inhibition of NaV1.5 current [9]: less than 10%
IC50 [2]: > 10000 nM
effect on the hNaV1.8 current [2]: unaffected
cardiac or neuromuscular side-effects [10]: no sign of cardiac or neuromuscular side-effects
pharmacological activity on the hNaV1.7 current [3]: strongly inhibit
selectivity towards the TTX-R (except hNaV1.8) and other TTX-S (except hNaV1.4) hNaV subtypes [3]: less than 10 fold
IC50 ([3]; IC50 on hNaV1.7 current): 309 ± 17 nM
IC50 ([3]; hNaV1.7 IC50): 254 nM
effect on mouse acute heat responses [11]: ineffective
IC50 [4]: 711 nM and 396 nM
effects in acute and inflammatory neuropathic (paw formalin injection) pain [12]: Anti-allodynic and analgesic effects
inhibition of NaV1.8 current [13]: less than 10%
IC50 [5]: 5900 ± 2100 nM
IC50 [14]: 202 ± 110 nM
inhibition of NaV1.7 current [15]: greater than 90%
IC50 ([15]; read-out: mean IC50 for interaction with the NaV1.7 subtype): 260 nM
inhibition of Drosophila Para/TipE current [16]: less than 10%
analgesia in CFA-induced heat hyperalgesia [17]: ineffective
IC50 [6]: 73.7 ± 46.3 nM
IC50 ([6]; read-out: IC50 on hNaV1.2 current): 279 ± 6.1 nM
inhibition of NaV1.2 current [18]: less than 10%
inhibition of NaV1.1 current [19]: less than 10%
Hill number nH, all concentration–response curves [7]: 1.05 ± 0.15
effect on the hKV11.1 current [8]: no effect
IC50 [20]: 491 ± 109 nM
inhibition of NaV1.3 current [21]: less than 10%
IC50 [22]: 280 ± 118 nM

NC1=N[C@H](O)[C@H]2[C@H]3O[C@]4(O)O[C@@H]([C@@H](O)[C@@]2(N1)[C@@H]4O)[C@]3(O)CO [Tetrodotoxin (citrate), Tetrodotoxin]
IC90 [23]: 1000 nM

CcoTx2: spider toxin, NaV ligand (CLGWFKSCDPKNDKCCKNYTCSRRDRWCKYYL)
concentration efficient to diminish or completely reverse the OD1-induced manifestations of pain [24]: 1 µM
IC50 [25]: 95 nM

Cd1a: spider toxin, NaV ligand (CLGWFKSCDPKNDKCCKNYSCSRRDRWCKYDL)
concentration efficient to diminish or completely reverse the OD1-induced manifestations of pain [24]: 1 µM
IC50 [25]: 16 nM
